No end group written: not given here.
Experiments:
[1] = in treated test animals; cited from earlier work
[2] = adsorption onto glass container in liquid form; assay type: physicochemical
From the text: However, with regard to compounds Which do have such a tendency when in liquid final, a surfactant should be used in their formulation. These formulations may then be lyophilized. Surfactants frequently cause denaturation of protein, both of hydrophobic disruption and by salt bridge separation. Relatively low concentrations of surfactant may exert a potent denaturing activity, because of the strong interactions between surfactant moieties and the reactive sites on proteins. However, judicious use of this interaction can stabilize proteins against interfacial or surface denaturation. Surfactants which could further stabilize the peptide may optionally be present in the range of about 0.001 to 0.3% (w/v) of the total formulation and include polysorbate 80 (i.e., polyoxyethylene(20) sorbitan monooleate), CHAPS® (i.e., 3-[(3-Cholamidopropyl)dimethylammonio]propanesulfonic acid), BRIJ® (e.g., Brij 35, which is (polyoxyethylene(23) lauryl ether), poloxamer, or another non-ionic surfactant.

cloned GLP-1 receptor = conditions: cells transfected with the cloned GLP-1 receptor; cited from earlier work
T2DM patients = conditions: head-to-head comparator trial; cited from earlier work
[3] = compared to human amylin; cited from earlier work

For “^28Pro-h-amylin (KCNTATCATQRLANFLVHSSNNFGAILPSTNVGSNTY) [amylin agonist analog]”, the amylin activity [1] is given as “amylin activity in vivo”.

In the case of `CC[C@H](C)[C@H](NC(=O)[C@@H]1CCCN1C(=O)CNC(=O)[C@H](Cc1ccccc1)NC(=O)[C@H](CC(N)=O)NC(=O)[C@H](CC(N)=O)NC(=O)[C@H](CO)NC(=O)[C@H](CO)NC(=O)[C@H](Cc1c[nH]cn1)NC(=O)[C@@H](NC(=O)[C@H](CC(C)C)NC(=O)[C@H](Cc1ccccc1)NC(=O)[C@H](CC(N)=O)NC(=O)[C@H](C)NC(=O)[C@H](CC(C)C)NC(=O)[C@H](CCCNC(=N)N)NC(=O)[C@H](CCC(N)=O)NC(=O)[C@@H](NC(=O)[C@H](C)NC(=O)[C@@H]1CSSC[C@H](NC(=O)[C@@H](N)CCCCN)C(=O)N[C@@H](CC(N)=O)C(=O)N[C@@H]([C@@H](C)O)C(=O)N[C@@H](C)C(=O)N[C@@H]([C@@H](C)O)C(=O)N1)[C@@H](C)O)C(C)C)C(=O)N[C@@H](CC(C)C)C(=O)N1CCC[C@H]1C(=O)N1CCC[C@H]1C(=O)N[C@H](C(=O)N[C@@H](CC(N)=O)C(=O)N[C@H](C(=O)NCC(=O)N[C@@H](CO)C(=O)N[C@@H](CC(N)=O)C(=O)N[C@H](C(=O)N[C@@H](Cc1ccc(O)cc1)C(N)=O)[C@@H](C)O)C(C)C)[C@@H](C)O` [^25,28,29Pro-h-amylin, reference compound], the “tendency to adsorb onto the glass” value [2] is listed as “does not have a tendency to adsorb onto the glass” and the amylin activity [1] is listed as “amylin activity in vivo”.

For exendin[9-39], the “functional activity (cAMP)” value (cloned GLP-1 receptor) is given as “antagonist”.

In the case of “des-^1Lys-h-amylin (CNTATCATQRLANFLVHSSNNFGAILSSTNVGSNTY; ends and bridges not checked; cysteine pairing not given here; UniProt P10997 34-70, looked up, variant K1*) [amylin agonist analog]”, the amylin activity [1] is given as “amylin activity in vivo”.

For des-^1Lys^18Arg^25,28Pro-h-amylin, the amylin activity [1] is given as “amylin activity in vivo”.

In the case of insulin glargine, the HbA1c reductions (T2DM patients) is given as ~1.1% and the weight gain (T2DM patients) is given as ~1.8 kg.

In the case of “^25Pro^26Val^28,29Pro-h-amylin (KCNTATCATQRLANFLVHSSNNFGPVLPPTNVGSNTY) [amylin agonist analog]”, the “solubility and stability characteristics” value [3] is listed as “more desirable solubility and stability characteristics”.

For “^18Arg^25,28Pro-h-amylin (KCNTATCATQRLANFLVRSSNNFGPILPSTNVGSNTY) [amylin agonist analog]”, the amylin activity [1] is given as “amylin activity in vivo” and the “solubility and stability characteristics” value [3] is given as “more desirable solubility and stability characteristics”.

From patent US8389472B2, “Exendin-4 to treat nonalcoholic steatohepatitis and nonalcoholic fatty liver disease” (Amylin Pharmaceuticals, LLC, priority 2005, dated 2013)
